# Measurements: US11434246B2, “EP4 antagonists” (Eisai R&D Management Co., Ltd., priority 2015, dated 2022)
# Target: EP4 (Homo sapiens, UniProt P35408)
# Assay: EP4 Antagonism by CRE-PLAP Reporter Assay (SE302 cells, PGE2-stimulated)
# Type: cell-based
# Design: HEK293 cells express endogenous EP4; endogenous in cells; host or cells: SE302 (HEK293 clone with CRE-PLAP reporter)
# Details: SE302 (HEK293) cells, 3 ng/mL PGE2, overnight; single or multiple assay average values
# From the text: PGE2 and [^3H]-labelled PGE2 were purchased from Cayman Chemical (Ann Arbor, Mich.) and Perkin Elmer (Waltham, Mass.), respectively. Mouse breast 4T1 cells (CRL-2539) were obtained from American Tissue Culture Collection. SE302 cell line is a clone of the HEK293 cells containing cAMP response element (CRE) promoter that when activated drives secretion of placental-like alkaline phosphatase (PLAP). HEK293 cells express endogenous EP4 and show induction of PLAP in response to PGE2 and EP4 agonists, but not EP1, 2 or 3 agonists (Chen Q, Muramoto K, Masaaki N, Ding Y, Yang H, Mackey M, Li W, Inoue Y, Ackermann K, Shrota H, Matsumoto I, Spyvee M, Schiller S, Sumida T, Gusovsky F, and Lamphier M. A novel antagonist of the prostaglandin E2 EP4 receptor inhibits Th1 differentiation and Th17 expansion and is orally active in arthritis models. British J Pharmacol, 2010, 160: 292-310). BalB/C female mice at 7-8 week age were purchased from Jackson Laboratory (Bar Harbor, Me.). Mice were maintained under specific pathogen-free conditions.
# EP4 Antagonism by CRE-PLAP Reporter Assay: SE302 cells were maintained in DMEM/F12 (50:50) (MediaTech) supplemented with 10% FBS (Tissue Culture Biologicals) plus penicillin/streptomycin. When used for assays, cells were plated in a 96-well plate at 2×10^4 cells/100 μL/well in serum-free assay medium (DMEM/F12 supplemented with 0.1% BSA plus penicillin/streptomycin) and incubated for 4-6 h. Cells were then stimulated with 3 ng/mL of PGE2 in the presence or absence of various concentrations of test compound overnight, and PLAP activity was measured by mixing 15 μL of culture supernatants with 75 μL of Lumi-phos (Lumigen, Inc.) and 60 μL of assay buffer containing 8 mmol/L MgSO4 in 0.1 mol/L carbonate-bicarbonate buffer pH11 in a new 96-well black plate and incubated for 2 h at room temperature. The intensity of luminescence, which reflected the PLAP activity in the supernatant, was quantified with an Envision 2101 Multilabel Reader. Values obtained from DMSO treated samples in the presence of PGE2 were defined as 100% of control, whereas values obtained from DMSO treated samples in the absence of PGE2 were defined as 0% of control. % of control for compound treated samples was calculated as follows: (actual reading−0% of control)/(100% of control−0% of control)×100. IC50 value for each individual experiment was calculated using GraphPad Prism 6.02 (Lake Forest, Calif.) with % of control values.
# Compounds of the present invention were assayed according to the methods as described above, and IC50 values, which may be single assay values or multiple assay average values, are summarized in Table 1. Compounds marked “ABS” show absolute stereochemistry.
# Chain of EP4 (P35408 whole entry): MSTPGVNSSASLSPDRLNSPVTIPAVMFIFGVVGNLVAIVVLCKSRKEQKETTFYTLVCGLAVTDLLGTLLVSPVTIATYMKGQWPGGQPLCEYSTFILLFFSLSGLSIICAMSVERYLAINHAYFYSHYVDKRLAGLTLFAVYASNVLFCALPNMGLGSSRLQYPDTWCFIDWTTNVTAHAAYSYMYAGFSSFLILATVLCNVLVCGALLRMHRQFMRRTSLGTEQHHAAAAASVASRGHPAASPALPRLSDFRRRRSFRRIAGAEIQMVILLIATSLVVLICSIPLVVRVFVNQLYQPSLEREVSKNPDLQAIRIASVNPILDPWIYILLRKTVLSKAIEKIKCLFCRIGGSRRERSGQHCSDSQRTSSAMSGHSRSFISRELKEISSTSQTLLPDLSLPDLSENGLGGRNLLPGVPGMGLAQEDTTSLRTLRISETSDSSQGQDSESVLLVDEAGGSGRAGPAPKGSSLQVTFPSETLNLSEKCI
row,Compound,IC50 [nM]
1,"C[C@H](NC(=O)c1c(C(F)(F)F)nn2c1N(Cc1cccc(C(F)(F)F)c1)CC2)c1ccc(C(=O)O)cc1F [Compound 23, (S)-3-fluoro-4-(1-(6-(trifluoromethyl)-1-(3-(trifluoromethyl)benzyl)-2,3-dihydro-1H-imidazo[1,2-b]pyrazole-7-carboxamido)ethyl)benzoic Acid]",0.41
2,"COC(=O)c1ccc([C@H](C)NC(=O)c2c(C(F)(F)F)nn3c2N(Cc2cccc(C(F)(F)F)c2)CC3)cc1F [Compound 24, Methyl (S)-2-fluoro-4-(1-(6-(trifluoromethyl)-1-(3-(trifluoromethyl)benzyl)-2,3-dihydro-1H-imidazo[1,2-b]pyrazole-7-carboxamido)ethyl)benzoate]",8.2
3,"C[C@H](NC(=O)c1c(C(F)(F)F)nn2c1N(Cc1cccc(C(F)(F)F)c1)CC2)c1ccc(C(=O)O)c(F)c1 [Compound 25, (S)-2-fluoro-4-(1-(6-(trifluoromethyl)-1-(3-(trifluoromethyl)benzyl)-2,3-dihydro-1H-imidazo[1,2-b]pyrazole-7-carboxamido)ethyl)benzoic acid]",1.1
4,"C[C@H](NC(=O)c1c(C(F)(F)F)nn2c1N(Cc1ccc(C(F)(F)F)cc1)CC2)c1ccc(CC(=O)O)cc1 [Compound 27, (S)-2-(4-(1-(6-(trifluoromethyl)-1-(4-(trifluoromethyl)benzyl)-2,3-dihydro-1H-imidazo[1,2-b]pyrazole-7-carboxamido)ethyl)phenyl)acetic Acid]",7.08
5,"Cc1nn2c(c1C(=O)NC1(c3ccc(C(=O)O)cc3)CC1)N(Cc1ccc(C(F)(F)F)cc1)CC2 [Compound 28, 4-(1-(6-methyl-1-(4-(trifluoromethyl)benzyl)-2,3-dihydro-1H-imidazo[1,2-b]pyrazole-7-carboxamido)cyclopropyl)benzoic Acid]",8.68
6,"O=C(O)c1ccc(C2(NC(=O)c3c(C(F)(F)F)nn4c3N(Cc3ccc(C(F)(F)F)cc3)CC4)CC2)cc1 [Compound 29, 4-(1-(6-(trifluoromethyl)-1-(4-(trifluoromethyl)benzyl)-2,3-dihydro-1H-imidazo[1,2-b]pyrazole-7-carboxamido)cyclopropyl)benzoic Acid]",2.19
7,"O=C(O)c1ccc(C2(NC(=O)c3c(C(F)(F)F)nn4c3N(Cc3ccc(Cl)cc3)CC4)CC2)cc1 [Compound 30, 4-(1-(1-(4-chlorobenzyl)-6-(trifluoromethyl)-2,3-dihydro-1H-imidazo[1,2-b]pyrazole-7-carboxamido)cyclopropyl)benzoic Acid]",1.35
8,"Cc1nn2c(c1C(=O)N[C@@H](C)c1ccc(C(=O)O)cc1)N(Cc1ccc(Cl)cc1)CC2 [Compound 32, (S)-4-(1-(1-(4-chlorobenzyl)-6-methyl-2,3-dihydro-1H-imidazo[1,2-b]pyrazole-7-carboxamido)ethyl)benzoic Acid]",4.23
9,"C[C@H](NC(=O)c1c(C(F)(F)F)nn2c1N(Cc1cccc(C(F)(F)F)c1)CC2)c1ccc(-c2nn[nH]n2)cc1 [Compound 36, (S)—N-(1-(4-(2H-tetrazol-5-yl)phenyl)ethyl)-6-(trifluoromethyl)-1-(3-(trifluoromethyl)benzyl)-2,3-dihydro-1H-imidazo[1,2-b]pyrazole-7-carboxamide]",0.31
10,"C[C@H](NC(=O)c1c(C(F)(F)F)nn2c1N(Cc1cccc(C(F)(F)F)c1)CC2)c1ccc(C(=O)O)nc1 [Compound 38, (S)-5-(1-(6-(trifluoromethyl)-1-(3-(trifluoromethyl)benzyl)-2,3-dihydro-1H-imidazo[1,2-b]pyrazole-7-carboxamido)ethyl)picolinic Acid]",17.1
11,"C[C@H](NC(=O)c1c(C(F)(F)F)nn2c1N(Cc1cccc(C(F)(F)F)c1)CC2)c1ccc(C(=O)O)cn1 [Compound 39, (S)-6-(1-(6-(trifluoromethyl)-1-(3-(trifluoromethyl)benzyl)-2,3-dihydro-1H-imidazo[1,2-b]pyrazole-7-carboxamido)ethyl)nicotinic Acid]",4.73
12,"C[C@H](NC(=O)c1c(C(F)(F)F)nn2c1N(Cc1ccc(Cl)cc1)CCC2)c1ccc(C(=O)O)cc1 [Compound 41, (S)-4-(1-(4-(4-chlorobenzyl)-2-(trifluoromethyl)-4,5,6,7-tetrahydropyrazolo[1,5-a]pyrimidine-3-carboxamido)ethyl)benzoic Acid]",1.53
13,"C[C@H](NC(=O)c1c(C(F)(F)F)nn2c1N(Cc1ccccc1Cl)CC2)c1ccc(C(=O)O)cc1 [Compound 43, (S)-4-(1-(1-(2-chlorobenzyl)-6-(trifluoromethyl)-2,3-dihydro-1H-imidazo[1,2-b]pyrazole-7-carboxamido)ethyl)benzoic Acid]",4.17
14,"C[C@H](NC(=O)c1c(C(F)(F)F)nn2c1N(Cc1cccc(C(F)(F)F)c1)CCC2)c1ccc(C(=O)O)cc1 [Compound 44, (S)-4-(1-(2-(trifluoromethyl)-4-(3-(trifluoromethyl)benzyl)-4,5,6,7-tetrahydropyrazolo[1,5-a]pyrimidine-3-carboxamido)ethyl)benzoic Acid]",6.83
15,"C[C@H](NC(=O)c1c(C(F)(F)F)nn2c1N(Cc1ccc(C(F)(F)F)cc1)CCC2)c1ccc(C(=O)O)cc1 [Compound 45, (S)-4-(1-(2-(trifluoromethyl)-4-(4-(trifluoromethyl)benzyl)-4,5,6,7-tetrahydropyrazolo[1,5-a]pyrimidine-3-carboxamido)ethyl)benzoic Acid]",1.15

# More lines, now with the values ahead:
row,IC50 [nM],Compound
1,3.54,"C[C@H](NC(=O)c1c(C(F)(F)F)nn2c1N(Cc1cccc(C(F)(F)F)c1)CC2)c1ccc(CC(=O)O)cc1 [Compound 26, (S)-2-(4-(1-(6-(trifluoromethyl)-1-(3-(trifluoromethyl)benzyl)-2,3-dihydro-1H-imidazo[1,2-b]pyrazole-7-carboxamido)ethyl)phenyl)acetic Acid]"
2,0.99,"C[C@H](NC(=O)c1c(C(F)(F)F)nn2c1N(Cc1ccc(Cl)cc1)CC2)c1ccc(C(=O)O)cc1 [Compound 31, (S)-4-(1-(1-(4-chlorobenzyl)-6-(trifluoromethyl)-2,3-dihydro-1H-imidazo[1,2-b]pyrazole-7-carboxamido)ethyl)benzoic Acid]"
3,27.6,"Cc1nn2c(c1C(=O)NCc1ccc(C(=O)O)cc1)N(Cc1ccc(Cl)cc1)CC2 [Compound 33, 4-((1-(4-chlorobenzyl)-6-methyl-2,3-dihydro-1H-imidazo[1,2-b]pyrazole-7-carboxamido)methyl)benzoic Acid]"
4,9.19,"Cc1nn2c(c1C(=O)NC1(c3ccc(C(=O)O)cc3)CC1)N([C@H](C)c1ccc(C(F)(F)F)cc1)CC2 [Compound 34, (R)-4-(1-(6-methyl-1-(1-(4-(trifluoromethyl)phenyl)ethyl)-2,3-dihydro-1H-imidazo[1,2-b]pyrazole-7-carboxamido)cyclopropyl)benzoic Acid]"
5,11.1,"Cc1nn2c(c1C(=O)N[C@@H](C)c1ccc(C(=O)O)cc1)N([C@H](C)c1ccc(C(F)(F)F)cc1)CC2 [Compound 35, 4-((S)-1-(6-methyl-1-((R)-1-(4-(trifluoromethyl)phenyl)ethyl)-2,3-dihydro-1H-imidazo[1,2-b]pyrazole-7-carboxamido)ethyl)benzoic Acid]"
6,0.45,"C[C@H](NC(=O)c1c(C(F)(F)F)nn2c1N(Cc1ccc(C(F)(F)F)cc1)CC2)c1ccc(-c2nn[nH]n2)cc1 [Compound 37, (S)—N-(1-(4-(2H-tetrazol-5-yl)phenyl)ethyl)-6-(trifluoromethyl)-1-(4-(trifluoromethyl)benzyl)-2,3-dihydro-1H-imidazo[1,2-b]pyrazole-7-carboxamide]"
7,150,"C[C@H](NC(=O)c1c(C(F)(F)F)nn2c1N(Cc1ccc(C(F)(F)F)cc1)CC2)c1ccc(-c2ccoc2)cc1 [Compound 40, (S)—N-(1-(4-(furan-3-yl)phenyl)ethyl)-6-(trifluoromethyl)-1-(4-(trifluoromethyl)benzyl)-2,3-dihydro-1H-imidazo[1,2-b]pyrazole-7-carboxamide]"
8,13.6,"C[C@H](NC(=O)c1c(C(F)(F)F)nn2c1N(Cc1cccc(Cl)c1)CCC2)c1ccc(C(=O)O)cc1 [Compound 42, (S)-4-(1-(4-(3-chlorobenzyl)-2-(trifluoromethyl)-4,5,6,7-tetrahydropyrazolo[1,5-a]pyrimidine-3-carboxamido)ethyl)benzoic Acid]"
